Values quoted from earlier work, collected in patent US20060160157A1, “Method, compositions and classification for tumor diagnostics and treatment” (priority 2005, published 2006).

What was measured:
[1] = pH change 7.5 to 4.0
[2] = molecular target: GRP-R (Homo sapiens, UniProt P30550); settings: radiolabeled bombesin as radioligand
Sequence of GRP-R (P30550 whole entry, species assumed): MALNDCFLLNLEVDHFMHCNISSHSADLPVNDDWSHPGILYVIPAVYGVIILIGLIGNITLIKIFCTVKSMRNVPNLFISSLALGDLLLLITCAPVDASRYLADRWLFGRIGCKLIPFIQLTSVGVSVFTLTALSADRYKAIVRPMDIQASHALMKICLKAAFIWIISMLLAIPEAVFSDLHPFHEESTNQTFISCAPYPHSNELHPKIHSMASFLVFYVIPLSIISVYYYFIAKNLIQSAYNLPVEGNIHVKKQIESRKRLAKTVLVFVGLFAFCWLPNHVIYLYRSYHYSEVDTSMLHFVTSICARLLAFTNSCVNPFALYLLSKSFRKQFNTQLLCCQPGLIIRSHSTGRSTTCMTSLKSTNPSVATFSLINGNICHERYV

| Substance | change in the ka rate constant (association) [1] | change in the kd rate constant (dissociation) [1] | GRP-R binding selectivity (rank order of affinity) [2] |
| --- | --- | --- | --- |
| growth hormone | 1.7 times | 1,600 times |  |
| neuromedin |  |  | GRP >bombesin> neuromedin |
